Laboratory results: paper PMC5651568, “Comparative characterization of all cellulosomal cellulases from Clostridium thermocellum reveals high diversity in endoglucanase product formation essential for complex activity” (Biotechnology for Biofuels, 2017)

Legend:
Test in all cases: TLC product analysis
Type in all cases: biochemical
Settings in all cases: 60 °C, MOPS buffer, 10 mM CaCl2
Cel5-26H = molecular target: T1, Cel5-26H (Acetivibrio thermocellus, UniProt P16218)
T1 construct: gene celH; signal peptide removed, GH5 and GH26 modules, dockerin kept, His-tag, E. coli BL21
T1 sequence (P16218 45-900): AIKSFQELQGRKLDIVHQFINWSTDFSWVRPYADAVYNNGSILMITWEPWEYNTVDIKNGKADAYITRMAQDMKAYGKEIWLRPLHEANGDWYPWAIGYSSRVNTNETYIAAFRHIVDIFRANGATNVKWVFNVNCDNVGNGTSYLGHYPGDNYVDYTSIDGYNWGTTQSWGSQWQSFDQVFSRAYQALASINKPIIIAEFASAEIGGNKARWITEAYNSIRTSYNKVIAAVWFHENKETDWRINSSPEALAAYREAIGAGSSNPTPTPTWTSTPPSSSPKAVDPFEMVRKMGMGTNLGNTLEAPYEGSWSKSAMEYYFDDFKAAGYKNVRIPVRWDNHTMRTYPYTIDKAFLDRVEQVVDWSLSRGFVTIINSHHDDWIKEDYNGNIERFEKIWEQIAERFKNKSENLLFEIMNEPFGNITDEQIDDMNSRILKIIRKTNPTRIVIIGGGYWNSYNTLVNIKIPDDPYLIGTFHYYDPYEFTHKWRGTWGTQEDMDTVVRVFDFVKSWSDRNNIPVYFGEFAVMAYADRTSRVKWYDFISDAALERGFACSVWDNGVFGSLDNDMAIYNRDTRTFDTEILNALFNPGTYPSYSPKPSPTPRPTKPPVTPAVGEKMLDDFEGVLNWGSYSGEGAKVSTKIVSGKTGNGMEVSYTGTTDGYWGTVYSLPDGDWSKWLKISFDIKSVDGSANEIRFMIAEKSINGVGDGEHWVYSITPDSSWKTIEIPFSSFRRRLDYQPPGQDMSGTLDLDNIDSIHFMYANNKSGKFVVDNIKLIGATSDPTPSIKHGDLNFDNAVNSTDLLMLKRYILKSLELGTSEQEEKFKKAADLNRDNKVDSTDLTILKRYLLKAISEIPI

Cel9-44J = molecular target: T2, Cel9-44J (Acetivibrio thermocellus, UniProt A3DD30)
T2 construct: gene Cthe_0624; signal peptide removed, GH9 and GH44 modules, dockerin kept, His-tag, codon-optimised synthetic gene, E. coli BL21

Cel9D = molecular target: T3, Cel9D (Acetivibrio thermocellus, UniProt A3DDN1)
T3 construct: gene celD; signal peptide removed, Ig-like module and dockerin kept, His-tag, E. coli BL21
T3 sequence (A3DDN1 42-649): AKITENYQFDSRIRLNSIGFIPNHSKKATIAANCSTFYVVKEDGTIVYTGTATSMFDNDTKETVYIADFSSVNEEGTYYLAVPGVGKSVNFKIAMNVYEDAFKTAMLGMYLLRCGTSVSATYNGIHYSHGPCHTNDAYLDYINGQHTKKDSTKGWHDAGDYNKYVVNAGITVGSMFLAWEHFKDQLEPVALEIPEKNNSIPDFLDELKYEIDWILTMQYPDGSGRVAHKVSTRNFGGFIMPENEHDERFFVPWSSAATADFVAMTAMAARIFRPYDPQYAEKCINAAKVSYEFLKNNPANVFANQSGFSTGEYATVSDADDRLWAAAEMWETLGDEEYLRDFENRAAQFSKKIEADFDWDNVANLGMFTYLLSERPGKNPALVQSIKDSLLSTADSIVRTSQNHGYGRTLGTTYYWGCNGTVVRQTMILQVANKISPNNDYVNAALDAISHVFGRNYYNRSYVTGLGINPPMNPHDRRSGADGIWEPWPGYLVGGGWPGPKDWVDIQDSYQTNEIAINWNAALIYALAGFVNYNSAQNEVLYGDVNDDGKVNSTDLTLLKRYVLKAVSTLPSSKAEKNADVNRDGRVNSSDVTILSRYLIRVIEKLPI

Cel9K = molecular target: T4, Cel9K (Acetivibrio thermocellus, UniProt A3DCH1)
T4 construct: gene celK; signal peptide removed, dockerin kept, His-tag, codon-optimised synthetic gene, E. coli BL21
T4 sequence (A3DCH1 28-895): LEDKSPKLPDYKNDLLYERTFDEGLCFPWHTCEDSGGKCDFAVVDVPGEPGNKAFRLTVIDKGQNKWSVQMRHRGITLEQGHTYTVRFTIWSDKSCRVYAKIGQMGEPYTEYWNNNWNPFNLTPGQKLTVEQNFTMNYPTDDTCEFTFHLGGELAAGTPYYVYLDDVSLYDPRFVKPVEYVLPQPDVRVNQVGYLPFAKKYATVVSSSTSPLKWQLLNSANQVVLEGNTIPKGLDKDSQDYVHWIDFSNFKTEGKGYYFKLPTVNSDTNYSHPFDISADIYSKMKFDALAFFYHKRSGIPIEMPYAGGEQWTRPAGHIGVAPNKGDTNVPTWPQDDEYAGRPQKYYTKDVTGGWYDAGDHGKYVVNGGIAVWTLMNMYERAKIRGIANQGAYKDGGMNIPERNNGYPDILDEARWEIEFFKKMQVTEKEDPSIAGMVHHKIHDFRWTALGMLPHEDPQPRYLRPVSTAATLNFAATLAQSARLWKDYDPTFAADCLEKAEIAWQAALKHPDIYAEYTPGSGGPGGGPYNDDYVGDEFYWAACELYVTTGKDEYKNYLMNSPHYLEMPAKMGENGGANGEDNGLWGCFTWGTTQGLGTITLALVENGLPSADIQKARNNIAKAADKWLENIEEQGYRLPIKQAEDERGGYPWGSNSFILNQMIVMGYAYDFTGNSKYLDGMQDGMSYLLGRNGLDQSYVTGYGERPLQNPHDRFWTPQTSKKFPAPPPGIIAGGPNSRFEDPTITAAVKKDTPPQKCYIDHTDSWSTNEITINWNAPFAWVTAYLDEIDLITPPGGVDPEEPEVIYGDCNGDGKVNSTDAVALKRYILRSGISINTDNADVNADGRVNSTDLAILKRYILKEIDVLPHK

Cel9T = molecular target: T5, Cel9T (Acetivibrio thermocellus, UniProt A3DJ82)
T5 construct: gene Cthe_2812; signal peptide removed, dockerin kept, His-tag, E. coli BL21
T5 sequence (A3DJ82 36-611): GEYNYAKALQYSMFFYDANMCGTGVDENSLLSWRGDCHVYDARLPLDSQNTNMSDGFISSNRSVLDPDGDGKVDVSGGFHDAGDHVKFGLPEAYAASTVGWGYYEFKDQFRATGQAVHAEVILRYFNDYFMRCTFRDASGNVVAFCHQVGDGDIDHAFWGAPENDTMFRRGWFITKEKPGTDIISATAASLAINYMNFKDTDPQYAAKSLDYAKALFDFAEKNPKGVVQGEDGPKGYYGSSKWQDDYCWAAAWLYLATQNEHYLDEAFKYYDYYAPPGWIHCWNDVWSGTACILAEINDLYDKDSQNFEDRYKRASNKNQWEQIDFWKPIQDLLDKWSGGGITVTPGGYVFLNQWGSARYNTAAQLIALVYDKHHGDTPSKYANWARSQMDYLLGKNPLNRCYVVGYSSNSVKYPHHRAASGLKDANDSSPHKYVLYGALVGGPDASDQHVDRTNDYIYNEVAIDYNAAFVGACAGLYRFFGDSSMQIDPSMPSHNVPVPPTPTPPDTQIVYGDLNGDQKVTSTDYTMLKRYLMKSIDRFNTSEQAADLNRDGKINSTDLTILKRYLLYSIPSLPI

Cbh9A = molecular target: T6, Cbh9A (Acetivibrio thermocellus, UniProt A3DCH2)
T6 construct: gene Cthe_0413; signal peptide removed, dockerin kept, His-tag, E. coli BL21
T6 sequence (A3DCH2 28-1224): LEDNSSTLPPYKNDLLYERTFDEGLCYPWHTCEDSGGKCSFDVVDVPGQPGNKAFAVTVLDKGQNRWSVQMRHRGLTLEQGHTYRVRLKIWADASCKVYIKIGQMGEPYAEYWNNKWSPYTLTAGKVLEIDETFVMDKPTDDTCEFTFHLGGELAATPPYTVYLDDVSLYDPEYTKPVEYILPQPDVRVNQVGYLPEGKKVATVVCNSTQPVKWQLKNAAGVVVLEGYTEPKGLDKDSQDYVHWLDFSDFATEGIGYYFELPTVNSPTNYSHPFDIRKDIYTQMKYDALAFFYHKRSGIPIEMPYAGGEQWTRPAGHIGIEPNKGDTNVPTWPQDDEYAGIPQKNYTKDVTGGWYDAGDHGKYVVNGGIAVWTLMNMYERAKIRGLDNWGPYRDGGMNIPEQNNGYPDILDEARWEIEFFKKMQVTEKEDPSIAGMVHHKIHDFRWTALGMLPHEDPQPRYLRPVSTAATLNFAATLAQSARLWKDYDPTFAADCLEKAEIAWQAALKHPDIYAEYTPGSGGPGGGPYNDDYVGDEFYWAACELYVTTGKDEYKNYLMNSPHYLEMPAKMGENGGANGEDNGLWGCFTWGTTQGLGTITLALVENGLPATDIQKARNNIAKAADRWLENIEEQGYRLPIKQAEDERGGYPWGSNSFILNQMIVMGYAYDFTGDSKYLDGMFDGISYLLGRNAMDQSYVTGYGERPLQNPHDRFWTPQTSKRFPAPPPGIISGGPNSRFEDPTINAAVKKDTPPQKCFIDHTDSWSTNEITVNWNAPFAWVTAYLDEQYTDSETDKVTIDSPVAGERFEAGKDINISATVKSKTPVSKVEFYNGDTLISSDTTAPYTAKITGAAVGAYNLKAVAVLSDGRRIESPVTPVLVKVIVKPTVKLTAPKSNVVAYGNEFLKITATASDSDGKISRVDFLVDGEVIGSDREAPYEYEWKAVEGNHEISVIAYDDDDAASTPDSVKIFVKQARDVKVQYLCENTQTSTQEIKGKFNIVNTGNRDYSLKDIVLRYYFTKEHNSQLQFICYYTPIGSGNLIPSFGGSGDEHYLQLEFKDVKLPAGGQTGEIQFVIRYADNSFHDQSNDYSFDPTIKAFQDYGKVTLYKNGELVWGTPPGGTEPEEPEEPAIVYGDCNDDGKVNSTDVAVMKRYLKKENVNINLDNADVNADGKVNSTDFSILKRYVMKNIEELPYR

T2 sequence (A3DD30 28-1601): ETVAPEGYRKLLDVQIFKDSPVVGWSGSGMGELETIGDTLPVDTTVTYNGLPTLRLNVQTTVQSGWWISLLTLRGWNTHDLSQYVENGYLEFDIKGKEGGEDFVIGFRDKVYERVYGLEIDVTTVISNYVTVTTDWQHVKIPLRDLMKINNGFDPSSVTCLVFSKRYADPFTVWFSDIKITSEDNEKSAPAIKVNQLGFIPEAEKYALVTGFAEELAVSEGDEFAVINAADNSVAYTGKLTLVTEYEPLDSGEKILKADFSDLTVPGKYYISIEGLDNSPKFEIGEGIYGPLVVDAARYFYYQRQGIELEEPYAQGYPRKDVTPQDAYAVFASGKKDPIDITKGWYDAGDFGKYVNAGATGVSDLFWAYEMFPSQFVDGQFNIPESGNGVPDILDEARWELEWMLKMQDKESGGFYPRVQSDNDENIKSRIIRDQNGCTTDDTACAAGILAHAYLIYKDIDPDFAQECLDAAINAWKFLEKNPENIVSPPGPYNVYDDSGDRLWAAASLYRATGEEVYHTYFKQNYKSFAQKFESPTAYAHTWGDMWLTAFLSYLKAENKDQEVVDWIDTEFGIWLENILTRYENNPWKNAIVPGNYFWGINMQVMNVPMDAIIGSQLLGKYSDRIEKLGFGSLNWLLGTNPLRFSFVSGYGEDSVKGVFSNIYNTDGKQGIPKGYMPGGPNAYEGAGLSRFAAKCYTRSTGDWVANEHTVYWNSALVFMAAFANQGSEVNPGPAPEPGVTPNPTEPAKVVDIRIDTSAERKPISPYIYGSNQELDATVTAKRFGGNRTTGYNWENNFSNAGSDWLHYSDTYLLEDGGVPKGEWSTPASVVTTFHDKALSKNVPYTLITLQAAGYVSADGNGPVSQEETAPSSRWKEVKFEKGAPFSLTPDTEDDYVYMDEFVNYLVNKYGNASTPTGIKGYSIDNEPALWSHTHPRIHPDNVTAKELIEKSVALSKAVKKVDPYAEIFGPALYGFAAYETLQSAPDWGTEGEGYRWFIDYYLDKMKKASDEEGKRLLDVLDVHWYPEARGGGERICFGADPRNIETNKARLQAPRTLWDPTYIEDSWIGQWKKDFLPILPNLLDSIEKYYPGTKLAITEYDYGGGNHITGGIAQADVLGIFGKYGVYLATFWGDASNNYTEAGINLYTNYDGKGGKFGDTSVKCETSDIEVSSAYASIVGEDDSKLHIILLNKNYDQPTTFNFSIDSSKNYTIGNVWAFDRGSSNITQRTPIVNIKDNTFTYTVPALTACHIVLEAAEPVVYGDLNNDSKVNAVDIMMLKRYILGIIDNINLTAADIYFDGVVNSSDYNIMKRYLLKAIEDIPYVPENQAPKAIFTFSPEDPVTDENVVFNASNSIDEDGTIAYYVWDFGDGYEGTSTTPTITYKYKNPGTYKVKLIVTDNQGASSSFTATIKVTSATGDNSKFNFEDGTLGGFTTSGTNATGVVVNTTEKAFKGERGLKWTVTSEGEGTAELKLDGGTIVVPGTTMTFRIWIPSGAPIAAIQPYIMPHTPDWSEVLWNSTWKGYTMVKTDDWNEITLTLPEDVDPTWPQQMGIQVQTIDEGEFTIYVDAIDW

For OC[C@H]1O[C@@H](O[C@H]2[C@H](O)[C@@H](O)[C@H](O[C@H]3[C@H](O)[C@@H](O)[C@H](O[C@H]4[C@H](O)[C@@H](O)[C@H](O[C@H]5[C@H](O)[C@@H](O)[C@H](O[C@H]6[C@H](O)[C@@H](O)C(O)O[C@@H]6CO)O[C@@H]5CO)O[C@@H]4CO)O[C@@H]3CO)O[C@@H]2CO)[C@H](O)[C@@H](O)[C@@H]1O (stereo partly drawn) [cellohexaose], the TLC product analysis (Cel5-26H) was “characterized by their indiscriminate scission of cello-oligosaccharides”, the TLC product analysis (Cel9-44J) was “characterized by their indiscriminate scission of cello-oligosaccharides” and the TLC product analysis (Cel9D) was “confirmed by the hydrolysis products from cello-oligosaccharides as substrate”. For the same compound, the TLC product analysis (Cel9K) was “released specifically cellobiose as the only product over time (Cel48S, Cel9K, and Cbh9A)”, the TLC product analysis (Cel9T) was “characterized by their indiscriminate scission of cello-oligosaccharides” and the TLC product analysis (Cbh9A) was “released specifically cellobiose as the only product over time (Cel48S, Cel9K, and Cbh9A)”.
